Results from the NIST ThermoML archive (doi:10.1016/j.jct.2015.01.001).
“And” between values parts separate entries of the source, which are not always exact repeats. Identical values can stand only once.

Tests used:
[1] = Liquid; for vapor or sublimation pressure: Closed cell (Static) method; for viscosity: Falling or rolling sphere viscometry; for mass density: Vibrating tube method
[2] = xn = mol fraction of the nth substance listed; conditions: Liquid; for viscosity: Falling or rolling sphere viscometry; for mass density: Vibrating tube method

CO [methanol]
[1]
Conditions | mass density [kg/m3] | vapor or sublimation pressure [kPa] | viscosity [mPa·s]
298.15 K | 786.7 | 17 | 0.544
303.15 K | 782 | 21.9 | 0.512
308.15 K | 777.3 | 27.9 | 0.486
313.15 K | 772.5 | 35.6 | 0.46

CO [methanol] + O=C=O
[2], x2 = 0
Conditions | mass density [kg/m3] | viscosity [mPa·s]
298.15 K, 17 kPa | 786.7 | 0.544
303.15 K, 21.9 kPa | 782 | 0.512
308.15 K, 27.9 kPa | 777.3 | 0.486
313.15 K, 35.6 kPa | 772.5 | 0.46

O=S1(=O)CCCC1 [sulfolane]
[1]
Conditions | mass density [kg/m3] | viscosity
303.15 K | 1262 | 10.3 mPa·s and 10.2 mPa·s
313.15 K | 1253 | 8.01 mPa·s
323.15 K | 1244 | 6.32 mPa·s
333.15 K | 1235 | 5.16 mPa·s
343.15 K | 1226 | 4.22 mPa·s
353.15 K | 1218 | 3.5 mPa·s
363.15 K | 1209 | 2.92 mPa·s

O=C=O [carbon dioxide] + CO
[2]
Conditions | mass density [kg/m3] | viscosity [mPa·s]
298.15 K, 467.6 kPa, x1 = 0.037 | 792.7 | 0.523
298.15 K, 1827.6 kPa, x1 = 0.155 | 811.4 | 0.45
298.15 K, 2059.2 kPa, x1 = 0.176 | 814.6 | 0.436
298.15 K, 2411.7 kPa, x1 = 0.207 | 819.5 | 0.418
298.15 K, 2609.8 kPa, x1 = 0.225 | 822.2 | 0.407
298.15 K, 3070.8 kPa, x1 = 0.268 | 828.6 | 0.383
303.15 K, 514.4 kPa, x1 = 0.034 | 787 | 0.497
303.15 K, 1357.8 kPa, x1 = 0.099 | 796.3 | 0.459
303.15 K, 2202.1 kPa, x1 = 0.164 | 805.7 | 0.421
303.15 K, 2582.4 kPa, x1 = 0.194 | 809.9 | 0.403
303.15 K, 2803.7 kPa, x1 = 0.212 | 812.4 | 0.392
303.15 K, 3272.7 kPa, x1 = 0.249 | 817.7 | 0.37
308.15 K, 543.8 kPa, x1 = 0.032 | 783.2 | 0.467
308.15 K, 1454.6 kPa, x1 = 0.094 | 791.6 | 0.434
308.15 K, 2129.6 kPa, x1 = 0.14 | 797.9 | 0.408
308.15 K, 2391.6 kPa, x1 = 0.158 | 800.3 | 0.398
308.15 K, 2760.3 kPa, x1 = 0.184 | 803.7 | 0.385
308.15 K, 3001.7 kPa, x1 = 0.201 | 806 | 0.375
308.15 K, 3529.4 kPa, x1 = 0.238 | 810.9 | 0.356
313.15 K, 629.5 kPa, x1 = 0.031 | 777.5 | 0.443
313.15 K, 1587.2 kPa, x1 = 0.091 | 787.1 | 0.41
313.15 K, 2265.6 kPa, x1 = 0.133 | 793.6 | 0.39
313.15 K, 2523.6 kPa, x1 = 0.149 | 796 | 0.378
313.15 K, 2943.3 kPa, x1 = 0.175 | 800.1 | 0.368
313.15 K, 3205.9 kPa, x1 = 0.191 | 802.6 | 0.356
313.15 K, 3774.9 kPa, x1 = 0.227 | 808 | 0.337
